# How the values were obtained:
# Assay type in all cases: functional
# [1] = Minimal cytotoxic concentration (MCC) to cause a microscopically detectable change in normal cell morphology
# Human alphaherpesvirus 1 [2] = test: Minimal inhibitory concentration to reduce virus-induced cytopathicity against F strain of human Herpes Simplex Virus-1 (HSV-1); settings: Human alphaherpesvirus 1; read-out: MIC
# [3] = test system: Vesicular stomatitis virus; test: Minimal inhibitory concentration to reduce virus-induced cytopathicity against VSV
# Human alphaherpesvirus 1 [4] = test: Minimal inhibitory concentration to reduce virus-induced cytopathicity against KOS strain of human Herpes Simplex Virus -1
# Human alphaherpesvirus 2 [5] = test: Minimal inhibitory concentration to reduce virus-induced cytopathicity against 196 strain of human Herpes Simplex Virus-2
# Human alphaherpesvirus 1 [6] = test: Minimal inhibitory concentration to reduce virus-induced cytopathicity against TK-/TK+ HSV-1 of VMW 837
# Human alphaherpesvirus 1 [7] = test: Minimal inhibitory concentration to reduce virus-induced cytopathicity against Thymidine kinase deficient(TK-) HSV-1 of Acyclovir
# Human alphaherpesvirus 1 [8] = test: Minimal inhibitory concentration to reduce virus-induced cytopathicity against McIntyre strain of human Herpes Simplex Virus-1
# Vaccinia virus = test: Minimal inhibitory concentration to reduce virus-induced cytopathicity against VV; settings: Orthopoxvirus vaccinia
# Human alphaherpesvirus 2 [9] = test: Minimal inhibitory concentration to reduce virus-induced cytopathicity against G strain of human Herpes Simplex Virus-2
# Human alphaherpesvirus 2 [10] = test: Minimal inhibitory concentration to reduce virus-induced cytopathicity against Lyons strain of human Herpes Simplex Virus-2
# Human alphaherpesvirus 1 [11] = test: Minimal inhibitory concentration to reduce virus-induced cytopathicity against TK-/TK+ HSV-1 (VMW 837)
# Human alphaherpesvirus 1 [12] = test: Minimal inhibitory concentration to reduce virus-induced cytopathicity against Thymidine kinase deficient(TK-) HSV-1 (Acyclovir)
# [13] = Human alphaherpesvirus 2, read-out: MIC
Structure (SMILES),MCC [1] [µg/mL],MIC (Human alphaherpesvirus 1 [2]) [µg/mL],MIC [3] [µg/mL],MIC (Human alphaherpesvirus 1 [4]) [µg/mL],MIC (Human alphaherpesvirus 2 [5]) [µg/mL],MIC (Human alphaherpesvirus 1 [6]) [µg/mL],MIC (Human alphaherpesvirus 1 [7]) [µg/mL],MIC (Human alphaherpesvirus 1 [8]) [µg/mL],MIC (Vaccinia virus) [µg/mL],MIC (Human alphaherpesvirus 2 [9]; [13]) [µg/mL],MIC (Human alphaherpesvirus 2 [10]) [µg/mL],MIC (Human alphaherpesvirus 2 [9]) [pug ml-1],MIC (Human alphaherpesvirus 1 [11]) [µg/mL],MIC (Human alphaherpesvirus 1 [12]) [µg/mL]
CCc1cn2c(O)c3ncn(COCCO)c3nc2n1,> 400,9.6,> 400,1.92,9.6,48,240,9.6,240,9.6,9.6,,,
COc1ccc(-c2nc3nc4c(ncn4COCCO)c(O)n3c2-c2ccc(C(c3ccccc3)c3ccccc3)cc2)cc1,80,> 16,> 16,> 16,> 16,> 16,> 16,> 16,> 16,,> 16,>16,,
Cc1c(-c2ccccc2)nc2nc3c(ncn3COC(CO)CO)c(O)n12,> 400,0.005,> 240,0.02,0.005,0.02,3.2,0.005,> 400,0.03,0.02,,,
Nc1nc2c(ncn2COC(CO)CO)c(=O)[nH]1 [GANCICLOVIR],> 100,0.004,> 100,0.006,0.02,0.07,0.48,0.006,> 100,0.01,0.04,,,
OCCOCn1cnc2c(O)n3cc(-c4ccccc4)nc3nc21,> 100,0.7,> 100,0.4,0.2,> 70,,0.2,> 100,1.3,0.7,,,
OCCOCn1cnc2c(O)n3c(C(c4ccccc4)(c4ccccc4)c4ccccc4)cnc3nc21,80,> 16,> 16,> 16,> 16,> 16,> 16,> 16,> 16,> 16,> 16,,,
O=c1[nH]c(=O)n([C@H]2C[C@H](O)[C@@H](CO)O2)cc1/C=C/Br [BRIVUDINE],> 400,0.02,> 200,0.02,> 100,> 100,90,0.01,9.2,> 100,> 100,,,
Nc1nc2c(ncn2COCCO)c(=O)[nH]1 [ACYCLOVIR],> 400,0.08,> 80,0.13,0.07,,,0.13,> 80,0.19,0.28,,7.1,19
OCCOCn1cnc2c(O)n3c(-c4ccc(C(c5ccccc5)c5ccccc5)cc4)c(-c4ccccc4)nc3nc21,80,> 16,> 16,> 16,> 16,> 16,> 16,> 16,> 16,> 16,> 16,,,
Cc1c(-c2ccccc2)nc2nc3c(ncn3COCCO)c(O)n12,300,0.04,> 200,0.11,0.1,3.2,3.2,0.06,> 200,0.16,0.07,,,
CC(=O)OCCOCn1cnc2c(O)n3cc(-c4ccc5ccccc5c4)nc3nc21,> 80,> 16,> 16,> 16,> 16,> 16,> 16,> 16,> 16,> 16,> 16,,,
OCC(CO)OCn1cnc2c(O)n3ccnc3nc21,400,0.7,,0.7,2,,400,0.7,400,2,0.7,,,
COc1ccc(-c2cn3c(O)c4ncn(COC(CO)CO)c4nc3n2)cc1,> 80,0.005,> 80,0.005,0.08,0.04,> 16,0.005,> 80,0.03,0.02,,,
Cc1ccc(-c2cn3c(O)c4ncn(COCCO)c4nc3n2)cc1,250,0.07,> 40,0.43,0.2,82,9.2,0.07,> 40,0.93,0.4,,,

# — ChEMBL document CHEMBL1134637, “Fluorescent tricyclic analogues of acyclovir and ganciclovir. A structure-antiviral activity study” (2001)
